Data as given in the supplement of paper PMC10307832.

Experiments:
Assay in all cases: relative viability (nuclei count vs DMSO), 5 days (fraction); higher = more cells survive
RU-SKI 43 + Phenformin = compound: CC[C@@H](C)CNCC(=O)N1CCC2=C([C@@H]1COC3=CC=CC(=C3)C)C=CS2 [RU-SKI 43] + N=C(N)NC(=N)NCCc1ccccc1 [Phenformin] (partner 250 µM)
Method in brief: (§1)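 Relative viability was taken as the ratio of nuclei in treated wells to nuclei in vehicle wells. Lung cancer cell lines in 1536-well plates received compounds by pin tool one day after seeding, either one drug alone or a fixed anchor-drug dose plus five library-drug doses (not always all listed) in √10 steps. Nuclei were counted on 4× images after 5 days of treatment, and values are medians of duplicate plates.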

Irinotecan + Luminespib = compound: CCc1c2c(nc3ccc(OC(=O)N4CCC(N5CCCCC5)CC4)cc13)-c1cc3c(c(=O)n1C2)COC(=O)[C@]3(O)CC [Irinotecan] + CCNC(=O)c1noc(-c2cc(C(C)C)c(O)cc2O)c1-c1ccc(CN2CCOCC2)cc1 [Luminespib] (partner 0.01 µM)
Method in brief: as §1

Irinotecan + Crizotinib = compound: CCc1c2c(nc3ccc(OC(=O)N4CCC(N5CCCCC5)CC4)cc13)-c1cc3c(c(=O)n1C2)COC(=O)[C@]3(O)CC [Irinotecan] + C[C@@H](Oc1cc(-c2cnn(C3CCNCC3)c2)cnc1N)c1c(Cl)ccc(F)c1Cl [Crizotinib] (partner 1 µM)
Method in brief: as §1

MK-8033 + Lapatinib = compound: Cn1cc(-c2cnc3ccc4ccc(CS(=O)(=O)NCc5ccccn5)cc4c(=O)c3c2)cn1 [MK-8033] + CS(=O)(=O)CCNCc1ccc(-c2ccc3ncnc(Nc4ccc(OCc5cccc(F)c5)c(Cl)c4)c3c2)o1 [Lapatinib] (partner 2 µM)
Method in brief: as §1

Row | Cell Line | relative viability (RU-SKI 43 + Phenformin; first compound 0.1 µM) | relative viability (RU-SKI 43 + Phenformin; first compound 0.3162 µM) | relative viability (RU-SKI 43 + Phenformin; first compound 1 µM) | relative viability (RU-SKI 43 + Phenformin; first compound 3.162 µM) | relative viability (RU-SKI 43 + Phenformin; first compound 10 µM) | relative viability (Irinotecan + Luminespib; first compound 0.6325 µM) | relative viability (Irinotecan + Luminespib; first compound 2 µM) | relative viability (Irinotecan + Luminespib; first compound 6.325 µM) | relative viability (Irinotecan + Luminespib; first compound 20 µM) | relative viability (Irinotecan + Crizotinib; first compound 0.6325 µM) | relative viability (Irinotecan + Crizotinib; first compound 2 µM) | relative viability (Irinotecan + Crizotinib; first compound 6.325 µM) | relative viability (Irinotecan + Crizotinib; first compound 20 µM) | relative viability (MK-8033 + Lapatinib; first compound 0.02 µM) | relative viability (MK-8033 + Lapatinib; first compound 0.06325 µM) | relative viability (MK-8033 + Lapatinib; first compound 0.2 µM) | relative viability (MK-8033 + Lapatinib; first compound 0.6325 µM) | relative viability (MK-8033 + Lapatinib; first compound 2 µM)
1 | NCI-H460 | 0.534 | 0.973 | 0.788 | 0.575 | 0.467 | 0.019 | 0.0388 | 0.0428 | 0.047 | 0.709 | 0.239 | 0.0835 | 0.0573 | 0.968 | 0.897 | 0.907 | 1.13 | 0.793
2 | NCI-H520 | 0.673 | 0.629 | 0.519 | 0.581 | 0.561 | 0.249 | 0.257 | 0.256 | 0.303 | 0.639 | 0.524 | 0.279 | 0.225 | 0.959 | 0.853 | 0.784 | 0.867 | 0.79
3 | NCI-H596 | 0.776 | 0.808 | 0.725 | 0.921 | 0.77 | 0.884 | 0.963 | 0.71 | 0.801 | 0.945 | 0.924 | 0.741 | 0.68 | 1.12 | 0.977 | 1.05 | 1.02 | 1.17
4 | NCI-H647 | 0.631 | 0.621 | 0.84 | 0.686 | 0.501 | 0.152 | 0.212 | 0.157 | 0.119 | 0.852 | 0.365 | 0.227 | 0.198 | 0.892 | 1.02 | 0.798 | 1.09 | 1.05
5 | NCI-H650 | 0.479 | 0.37 | 0.509 | 0.425 | 0.475 | 0.635 | 0.322 | 0.139 | 0.199 | 0.543 | 0.436 | 0.258 | 0.235 | 0.759 | 0.966 | 0.838 | 0.845 | 0.921
6 | NCI-H661 | 0.288 | 0.281 | 0.324 | 0.281 | 0.267 | 0.848 | 0.822 | 0.41 | 0.195 | 0.923 | 0.842 |  | 0.517 | 0.384 | 0.417 | 0.482 | 0.453 | 0.438
7 | NCI-H727 | 0.524 | 0.59 | 0.676 | 0.662 | 0.445 | 0.271 | 0.455 | 0.501 | 0.494 | 0.366 | 0.556 | 0.497 | 0.447 | 0.759 | 0.72 | 0.665 | 0.748 | 0.858
8 | NCI-H838 | 0.682 | 0.626 | 0.745 | 0.654 | 0.682 | 0.23 | 0.262 | 0.213 | 0.266 | 0.769 | 0.679 | 0.365 | 0.276 | 0.902 | 0.844 | 0.925 | 0.927 | 0.911
9 | NCI-H1355 | 0.49 | 0.446 | 0.475 | 0.472 | 0.438 |  | 0.515 | 0.308 | 0.278 | 0.896 | 0.407 | 0.234 | 0.233 | 0.979 | 0.865 | 0.865 | 0.988 | 0.909
10 | NCI-H1437 | 0.359 | 0.267 | 0.311 | 0.352 | 0.306 | 0.955 | 0.723 | 0.4 | 0.338 | 0.962 | 0.664 | 0.323 | 0.24 | 0.736 | 0.773 | 0.793 | 0.834 | 0.749
11 | NCI-H1563 | 0.607 | 0.653 | 0.706 | 0.668 | 0.61 | 0.608 | 0.269 | 0.497 | 0.524 | 0.865 | 0.882 | 0.865 | 0.344 | 0.965 | 0.833 | 0.966 | 0.864 | 0.886
12 | NCI-H1650 | 0.423 | 0.314 | 0.445 | 0.386 | 0.336 |  | 0.212 | 0.277 | 0.271 | 0.918 | 1.23 | 0.391 | 0.179 | 0.823 | 0.69 | 0.737 | 0.709 | 0.707
13 | NCI-H1651 | 0.351 | 0.418 | 0.363 | 0.342 | 0.277 | 0.573 | 0.522 | 0.281 | 0.2 |  | 0.693 | 0.479 | 0.135 | 0.842 | 0.658 | 0.874 | 0.892 | 0.762
14 | NCI-H1666 | 0.58 | 0.574 | 0.518 | 0.519 | 0.53 | 0.858 | 0.721 | 0.658 | 0.331 | 0.617 | 0.464 | 0.47 | 0.357 | 0.708 | 0.505 | 0.519 | 0.656 | 0.587
15 | NCI-H1734 | 0.43 | 0.385 | 0.44 | 0.35 | 0.38 |  | 0.203 | 0.222 | 0.353 | 0.618 | 0.336 | 0.226 | 0.177 | 1.11 | 0.88 | 1.02 | 1.09 | 1.01
16 | NCI-H1755 | 0.648 | 0.613 | 0.63 | 0.644 | 0.666 | 0.433 | 0.415 | 0.299 | 0.241 | 0.712 | 0.497 | 0.332 | 0.451 | 1.06 | 0.986 | 1.02 | 1.02 | 0.957
17 | NCI-H1792 | 0.267 |  | 0.4 |  | 0.227 | 0.726 | 0.491 | 0.34 | 0.321 | 0.918 | 1.05 | 0.536 | 0.239 | 1.06 | 0.87 | 0.863 | 0.917 | 0.976
18 | NCI-H1915 | 0.391 | 0.445 | 0.365 | 0.376 | 0.361 | 0.346 | 0.36 | 0.149 | 0.132 | 0.417 | 0.369 | 0.178 | 0.227 | 0.935 | 0.85 | 0.992 | 1 | 0.948
